Source: patent publication US20030203373A1 (priority 2002, published 2003)
Where “and” joins values, the source holds several entries; their conditions need not be identical. Equal values may be shown once. Ends that are not written are not given here.

Target: T1, ACE from pig kidney (Sus scrofa, UniProt F1RRW5)
T1 construct: 1 mU ACE from pig kidney (EC 3.4.15.1 (Sigma)); purchased Sigma; host or cells: pig kidney (tissue-derived enzyme)
T1 sequence (F1RRW5 34-1309): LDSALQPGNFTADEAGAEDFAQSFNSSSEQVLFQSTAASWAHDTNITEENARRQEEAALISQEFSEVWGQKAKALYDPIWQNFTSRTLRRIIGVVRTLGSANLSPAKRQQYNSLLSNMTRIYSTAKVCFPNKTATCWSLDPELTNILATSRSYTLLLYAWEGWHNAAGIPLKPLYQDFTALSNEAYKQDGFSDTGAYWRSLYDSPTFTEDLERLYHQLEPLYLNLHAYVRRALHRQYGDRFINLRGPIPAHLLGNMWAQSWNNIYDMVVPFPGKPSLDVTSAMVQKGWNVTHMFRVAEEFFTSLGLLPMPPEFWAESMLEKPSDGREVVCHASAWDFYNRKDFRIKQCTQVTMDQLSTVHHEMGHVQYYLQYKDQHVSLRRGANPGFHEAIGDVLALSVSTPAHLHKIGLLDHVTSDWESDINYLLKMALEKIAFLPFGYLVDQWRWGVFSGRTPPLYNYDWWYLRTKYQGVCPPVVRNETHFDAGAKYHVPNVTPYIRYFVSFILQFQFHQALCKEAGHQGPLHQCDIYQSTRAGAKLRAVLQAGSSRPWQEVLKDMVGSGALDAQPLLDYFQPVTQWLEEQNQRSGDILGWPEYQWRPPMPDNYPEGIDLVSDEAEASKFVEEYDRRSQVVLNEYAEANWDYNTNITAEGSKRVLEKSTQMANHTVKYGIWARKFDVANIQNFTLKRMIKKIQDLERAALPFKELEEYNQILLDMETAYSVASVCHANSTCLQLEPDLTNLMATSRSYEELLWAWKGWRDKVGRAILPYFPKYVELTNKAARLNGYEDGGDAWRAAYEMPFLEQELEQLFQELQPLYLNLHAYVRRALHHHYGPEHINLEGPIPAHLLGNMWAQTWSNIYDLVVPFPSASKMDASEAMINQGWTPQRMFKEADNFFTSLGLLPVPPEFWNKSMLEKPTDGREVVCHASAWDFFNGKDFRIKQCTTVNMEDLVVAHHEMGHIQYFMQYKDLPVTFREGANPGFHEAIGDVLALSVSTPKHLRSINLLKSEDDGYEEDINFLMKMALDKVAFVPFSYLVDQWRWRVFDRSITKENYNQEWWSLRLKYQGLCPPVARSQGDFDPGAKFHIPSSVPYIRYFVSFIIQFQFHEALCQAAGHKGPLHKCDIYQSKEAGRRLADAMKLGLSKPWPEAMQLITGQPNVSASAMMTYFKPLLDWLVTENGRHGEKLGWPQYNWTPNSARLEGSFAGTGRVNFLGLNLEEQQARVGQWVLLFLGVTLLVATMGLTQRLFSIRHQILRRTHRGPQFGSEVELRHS
Experiment: biochemical
Type: biochemical
Conditions: for IC50: ACE from pig kidney, determined graphically, read-out: IC50-value (ACE inhibition)
Excerpt: These peptides were investigated for their inhibitory effect using an in vitro-ACE-inhibitor-assay with an angiotensin-converting-enzyme derived from pig kidney. Hippuryl-histidyl-leucin was used as a substrate. […] A concrete experimental description is given below.
The principle of the ACE-inhibition-assay was established by Chejung, H. S., Cushman, D. W.: “Inhibition of homogenous angiotensin converting enzyme of rabbit lung by synthetic venom peptides of Bothrops jararaca.” in Biochimica et Biophysica Acta 293, 451-563 (1973).
The assay was performed in 96 well HTRF-plates (Packard). The concentrations used for each well were:
1 mU ACE from pig kidney (EC 3.4.15.1 (Sigma)) in 30 μl of assay buffer (25 mM HEPES; 0,3 M NaCl, pH 8,2) and 20 μl inhibitor dissolved in assay buffer (0,35-200 μM). The reaction was started by adding 50 μl of 2 mM hippuryl-histidyl-leucin (Sigma) in assay buffer. The reaction was performed at room temperature (22° C.) for 30 minutes and terminated by adding 50 μl of 2 M NaOH. Afterwards 50 μl of 0,5% ortho-phtalaldehyd (Sigma) in methanol were added, 5 minutes later followed by 50 μl of 2,5 M HCl-solution to stabilize the developed fluorescence product.
The results were used to calculate the % inhibition. The IC50-values were determined graphically from a curve showing the dose-reaction ratio.
In order to minimize errors due to time-dependent differences, all pipetting steps were performed in a precise time schedule.

[1] = inhibitor 0.39 μM, replicates A-D
[2] = inhibitor 0.39 μM, replicates A-D, 0.39 µM
[3] = inhibitor 0.78125 μM, replicates A-D
[4] = inhibitor 0.78125 μM, replicates A-D, 0.78125 µM
[5] = inhibitor 1.5625 μM, replicates A-D
[6] = inhibitor 1.5625 μM, replicates A-D, 1.5625 µM
[7] = inhibitor 3.125 μM, replicates A-D
[8] = inhibitor 3.125 μM, replicates A-D, 3.125 µM
[9] = inhibitor 6.25 μM, replicates A-D
[10] = inhibitor 6.25 μM, replicates A-D, 6.25 µM
[11] = inhibitor 12.5 μM, replicates A-D
[12] = inhibitor 12.5 μM, replicates A-D, 12.5 µM
[13] = inhibitor 25 μM, replicates A-D
[14] = inhibitor 25 μM, replicates A-D, 25 µM
[15] = inhibitor 50 μM, replicates A-D
[16] = inhibitor 50 μM, replicates A-D, 50 µM
[17] = inhibitor 100 μM, replicates A-D
[18] = inhibitor 100 μM, replicates A-D, 100 µM
[19] = inhibitor 200 μM, replicates A-D
[20] = inhibitor 200 μM, replicates A-D, 200 µM

| Substance | IC50 [µM] | fluorescence reading (ACE Inhibitor Assay) [1] | % inhibition (ACE Inhibitor Assay) [2] | fluorescence reading (ACE Inhibitor Assay) [3] | % inhibition (ACE Inhibitor Assay) [4] | fluorescence reading (ACE Inhibitor Assay) [5] | % inhibition (ACE Inhibitor Assay) [6] | fluorescence reading (ACE Inhibitor Assay) [7] | inhibition at 3.125 µM [7] [%] | % inhibition (ACE Inhibitor Assay) [8] | fluorescence reading (ACE Inhibitor Assay) [9] | inhibition at 6.25 µM [9] [%] | % inhibition (ACE Inhibitor Assay) [10] | fluorescence reading (ACE Inhibitor Assay) [11] | inhibition at 12.5 µM [11] [%] | % inhibition (ACE Inhibitor Assay) [12] | fluorescence reading (ACE Inhibitor Assay) [13] | inhibition at 25 µM [13] [%] | % inhibition (ACE Inhibitor Assay) [14] | fluorescence reading (ACE Inhibitor Assay) [15] | other results |
| --- | --- | --- | --- | --- | --- | --- | --- | --- | --- | --- | --- | --- | --- | --- | --- | --- | --- | --- | --- | --- | --- |
| LSPLPEVPP [Peptide S546] | 3.5 | 803315 and 773719 and 787391 and 826280 | 14.38% and 12.86% and 8.53% | 719861 and 687713 and 702450 and 763649 | 23.96% and 22.32% and 15.5% | 591636 and 572728 and 566984 and 657580 | 36.77% and 37.41% and 27.32% | 483121 and 472396 and 452574 and 495814 | 46.8 | 47.95% and 50.15% and 45.32% | 308510 and 312423 and 322970 and 336576 | 66.2 | 65.77% and 64.59% and 63.07% | 225714 and 208268 and 221839 and 226385 | 75.4 | 77.32% and 75.86% and 75.35% | 116421 and 119382 and 118514 and 124101 | 87.6 | 87.27% and 87.36% and 86.74% | 69502 and 65379 and 67861 and 73176 | inhibition at 0.39 µM [1]: 11.1%; inhibition at 0.78125 µM [3]: 20.4%; inhibition at 1.5625 µM [5]: 34.7%; inhibition at 50 µM [15]: 92.8%; % inhibition (ACE Inhibitor Assay) [16]: 93.28% and 93.01% and 92.41%; fluorescence reading (ACE Inhibitor Assay) [17]: 37664 and 36789 and 37490 and 39445; inhibition at 100 µM [17]: 96.4%; % inhibition (ACE Inhibitor Assay) [18]: 96.47% and 96.39% and 96.17%; fluorescence reading (ACE Inhibitor Assay) [19]: 22822 and 23110 and 24700 and 22511; inhibition at 200 µM [19]: 98%; % inhibition (ACE Inhibitor Assay) [20]: 97.99% and 97.82% and 98.06% |
| PLPEVPP [Peptide S548, PLPEVPP] | 21 | 850082 and 861072 and 990310 and 812986 | 5,85% and 4,63% and −9,77% and 9,98% | 736956 and 848448 and 878121 and 787559 | 18,46% and 6,03% and 2,73% and 12,82% | 672595 and 802519 and 857919 and 773857 | 25,63% and 11,15% and 4,98% and 14,35% | 735840 and 756404 and 788637 and 719509 | 18.6 | 16,29% and 12,7% and 20,4% | 644083 and 676136 and 699343 and 628007 | 28.8 | 25,23% and 22,65% and 30,6% | 668264 and 582524 and 619407 and 572641 | 37.2 | 35,66% and 31,55% and 36,76% | 411233 and 394114 and 413347 and 402465 | 54.8 | 56,66% and 54,52% and 55,73% | 291507 and 326054 and 343249 and 278402 | inhibition at 50 µM [15]: 68.1%; % inhibition (ACE Inhibitor Assay) [16]: 64,24% and 62,33% and 69,55%; fluorescence reading (ACE Inhibitor Assay) [17]: 181416 and 194177 and 204171 and 168452; inhibition at 100 µM [17]: 80.4%; % inhibition (ACE Inhibitor Assay) [18]: 78,94% and 77,82% and 81,8%; fluorescence reading (ACE Inhibitor Assay) [19]: 108115 and 108968 and 113955 and 101322; inhibition at 200 µM [19]: 88.5%; % inhibition (ACE Inhibitor Assay) [20]: 88,43% and 87,87% and 89,28% |
